Key:
[1] = tested on: anti-proliferative effect of histones on HMEC-1; assay: HMEC-1 proliferation (3H-thymidine) after histone exposure; format: cell-based, human; settings: compounds 100 μg ml^−1, histones 400 μg ml^−1, FIG. 8b
[2] = tested on: histone-induced erythrocyte rigidity; assay: Erythrocyte deformability, passage through artificial spleen; format: cell-based, human; settings: histones 400 μg ml^−1, compounds 100 and 200 μg ml^−1, FIG. 3d
Protocol: Human erythrocytes (RBC) were incubated for 1 h at 37° C. alone (‘Saline’ control) or in the presence of histones (400 μg ml^−1) with or without mCBS (200 μg ml^−1). a, Percentage of RBC aggregation measured by flow cytometry based on forward (FSC) and side (SSC) scatter parameters and an appropriate gating strategy to discriminate aggregated from normal (non-aggregated) RBC. b, Scanning electron micrographs depicting level of RBC aggregation at low and high magnification following the three treatments depicted in (a). c, Concentration dependent inhibition of histone-mediated RBC aggregation by mCBS and MTS, in this case RBC aggregation being calculated by flow cytometry as fold increase in RBC auto-fluorescence relative to RBC in the absence of histones. The fold increase values also provide an estimate of the number of RBC in each aggregate. d, Retention of RBC in an artificial spleen that measures RBC deformability. […]
In vitro erythrocyte microscopy, aggregation, fragility and deformability assays. […] Similarly, erythrocyte fragility induced by histones, in the presence or absence of inhibitors, was quantified using a sheer stress assay that we developed recently (Kordbacheh, F., O'Meara, C. H., Coupland, L. A., Lelliott, P. M. & Parish, C. R. Extracellular histones induce erythrocyte fragility and anemia. Blood 130, 2884-2888 (2017)). […]

[3] = tested on: histone-mediated cytotoxicity for HMEC-1; assay: Histone-mediated cytotoxicity assay (PI/Calcein-AM flow cytometry); format: cell-based
Protocol: Histone-mediated cytotoxicity assays. To determine the cytotoxicity of calf thymus histones (Sigma-Aldrich), various concentrations of histones (100-800 μg ml^−1) were added to suspensions of HMEC-1 or HUVEC (1×10^6 ml^−1) in 96 well plates and incubated for 1 h at 37° C. Cells were then incubated for 5 min at 37° C. with propidium iodide (PI; 2.5 μg ml^−1) (ThermoFisher Scientific), to detect dead cells, and Calcein-AM (0.04 μM) (ThermoFisher Scientific), to detect viable cells, placed on ice and the percentage of dead and viable cells determined by flow cytometry using gating strategies. In inhibition assays, HMEC-1 were incubated with histones (400 μg ml^−1) for 1 h at 37° C. in the presence of different concentrations of compounds (12.5-400 μg ml^−1) prior to the addition of PI and Calcein-AM. HMEC-1 cytotoxicity at each compound concentration was then determined based on the formula:
[formula] and the IC50 value for each polyanion then determined based on the line of best fit (nonlinear regression analysis) using Prism Software (Graphpad Software). In all assays MTS (IC50 30 μg ml^−1) was included as a standard to compensate for experimental variation, with data being adjusted in each assay to MTS having an IC50 of 30 μg ml^−1.

[4] = tested on: histone-mediated RBC aggregation; assay: Histone-mediated erythrocyte aggregation (flow cytometry, scanning EM); format: cell-based, human
Protocol: Human erythrocytes (RBC) were incubated for 1 h at 37° C. alone (‘Saline’ control) or in the presence of histones (400 μg ml^−1) with or without mCBS (200 μg ml^−1). a, Percentage of RBC aggregation measured by flow cytometry based on forward (FSC) and side (SSC) scatter parameters and an appropriate gating strategy to discriminate aggregated from normal (non-aggregated) RBC. b, Scanning electron micrographs depicting level of RBC aggregation at low and high magnification following the three treatments depicted in (a). c, Concentration dependent inhibition of histone-mediated RBC aggregation by mCBS and MTS, in this case RBC aggregation being calculated by flow cytometry as fold increase in RBC auto-fluorescence relative to RBC in the absence of histones. The fold increase values also provide an estimate of the number of RBC in each aggregate. d, Retention of RBC in an artificial spleen that measures RBC deformability. RBC were incubated with increasing concentrations of histones for 1 h and, at the highest concentration used (400 μg ml^−1), also incubated with either mCBS or MTS (100 and 200 μg ml^−1), prior to passage through the artificial spleen. Data are mean±s.e.m. (n=3 biological replicates). ***P<0.001, ****P<0.0001 (one way ANOVA with Dunnett's multiple comparisons test).
In vitro erythrocyte microscopy, aggregation, fragility and deformability assays. […] J Biol Chem 289, 19531-19537 (2014)). Similarly, erythrocyte fragility induced by histones, in the presence or absence of inhibitors, was quantified using a sheer stress assay that we developed recently (Kordbacheh, F., O'Meara, C. H., Coupland, L. A., Lelliott, P. M. & Parish, C. R. Extracellular histones induce erythrocyte fragility and anemia. Blood 130, 2884-2888 (2017)). Finally, the reduced deformability of erythrocytes in the presence of histones and the effect of inhibitors on this process was assessed by measuring the passage of erythrocytes through an artificial human spleen (Kordbacheh, F., O'Meara, C. H., Coupland, L. A., Lelliott, P. M. & Parish, C. R. Extracellular histones induce erythrocyte fragility and anemia. Blood 130, 2884-2888 (2017); and Deplaine, G. et al. The sensing of poorly deformable red blood cells by the human spleen can be mimicked in vitro. Blood 117, e88-95 (2011)).

[5] = Rat ischemia reperfusion tissue (skin) flap model; format: in vivo; settings: rat skin flap IRI, 50 mg kg^−1 i.p., 72 h, FIG. 7d
Source text: Rat ischemia reperfusion tissue flap model. The procedure employed is largely based on a previously described method (Bone, R. C. et al. Definitions for sepsis and organ failure and guidelines for the use of innovative therapies in sepsis. The ACCP/SCCM Consensus Conference Committee. American College of Chest Physicians/Society of Critical Care Medicine. Chest 101, 1644-1655 (1992)). Briefly, male Wistar rats were anaesthetized, locally depilated and a 3 cm by 6 cm fasciocutaneous flap was excised leaving the vascular pedicle intact. […] The clamp was removed 10 h post-application permitting returned blood flow to the flap. Test compounds (50 mg kg^−1) or saline were administered i.p. 5 min prior to clamp application and 5 min following its removal. The rats were monitored for a total experimental period of 72 h during which rats received additional compound or saline i.p. at 24 and 48 h post-op. The ‘Control No Clamp’ rats had the tissue flap excised and rubber placed underneath prior to re-suturing, however, the vessel was not clamped and they received saline at the same time points as the other rats. At the end of the experimental period the viability of the flaps was determined by the percentage of black necrotic or reddened areas versus pink viable areas. […]

O=S(=O)(O)OC[C@H]1O[C@H](O[C@H]2[C@H](OS(=O)(=O)O)[C@@H](OS(=O)(=O)O)C(OS(=O)(=O)O)O[C@@H]2COS(=O)(=O)O)[C@H](OS(=O)(=O)O)[C@@H](OS(=O)(=O)O)[C@@H]1O[C@H]1O[C@H](COS(=O)(=O)O)[C@@H](OS(=O)(=O)O)[C@H](OS(=O)(=O)O)[C@H]1OS(=O)(=O)O (stereo partly shown) [MTS, maltotriose per-O-sulfate]
Neutralization of anti-proliferative effect of histones on HMEC-1 monolayers [1]: completely neutralized
Ability of erythrocytes to passage through an artificial spleen [2]: totally restored
Inhibition of histone-mediated cytotoxicity for HMEC-1 (endothelial cells) ([3]; compared with heparin, FIG. 2a): as effective as heparin
IC50, inhibition of histone-mediated HMEC-1 cytotoxicity ([3]; histones 400 μg ml^−1, 1 h 37° C., MTS used as standard in all assays): 30 µg/mL
Effectiveness of MTS relative to mCBS in preventing RBC aggregation ([4]; FIG. 3c): ~2 fold
Prevention of histone-mediated RBC aggregation (auto-fluorescence) ([4]; histones 400 μg ml^−1, FIG. 3c): prevented aggregation in a concentration dependent manner
Viable area of the skin flap [5]: highly variable

Reference: patent US12239650B2, “Compounds for treating and preventing net associated complications” (The Australian National University, priority 2019, dated 2025)
